Data on one compound can be found in article PMC8830500, “Small Molecule Palmatine Targeting Musashi-2 in Colorectal Cancer” (Frontiers in Pharmacology, 2022).

Structures are written as SMILES.

What all share (type): binding
Test [1] deals with Musashi-2 (MSI2) (Homo sapiens, UniProt Q96DH6). The experiment in a line: MST with GFP-tagged protein in HEK293FT lysate; CETSA in HCT116 cells.
The target of test [2] is T1, LIN28A (Homo sapiens, UniProt Q9H9Z2).
T1 construct: GFP-tagged, HEK293FT lysate
T1 sequence (Q9H9Z2 2-209): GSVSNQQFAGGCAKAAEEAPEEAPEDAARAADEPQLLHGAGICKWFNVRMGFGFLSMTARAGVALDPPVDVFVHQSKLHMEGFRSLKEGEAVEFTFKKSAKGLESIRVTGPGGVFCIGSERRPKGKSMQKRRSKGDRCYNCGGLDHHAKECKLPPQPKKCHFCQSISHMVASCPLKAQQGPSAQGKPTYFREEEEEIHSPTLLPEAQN
The experiment in a line: MST with GFP-tagged protein in cell lysate.

In test [3] the target is T2, HUR (Homo sapiens, UniProt Q15717).
T2 construct: gene ELAVL1; GFP-tagged, HEK293FT lysate
The experiment in a line: MST with GFP-tagged protein in cell lysate.

T2 sequence (Q15717 2-326): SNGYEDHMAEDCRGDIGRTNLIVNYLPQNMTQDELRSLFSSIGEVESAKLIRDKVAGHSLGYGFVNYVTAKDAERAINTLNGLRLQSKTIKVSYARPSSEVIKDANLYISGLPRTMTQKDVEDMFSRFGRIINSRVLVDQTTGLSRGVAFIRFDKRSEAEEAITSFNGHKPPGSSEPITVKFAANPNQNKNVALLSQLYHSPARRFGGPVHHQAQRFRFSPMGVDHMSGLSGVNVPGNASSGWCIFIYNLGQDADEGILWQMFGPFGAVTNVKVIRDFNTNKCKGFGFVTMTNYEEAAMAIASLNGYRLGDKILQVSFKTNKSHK
Chain of Musashi-2 (MSI2) (Q96DH6 whole entry): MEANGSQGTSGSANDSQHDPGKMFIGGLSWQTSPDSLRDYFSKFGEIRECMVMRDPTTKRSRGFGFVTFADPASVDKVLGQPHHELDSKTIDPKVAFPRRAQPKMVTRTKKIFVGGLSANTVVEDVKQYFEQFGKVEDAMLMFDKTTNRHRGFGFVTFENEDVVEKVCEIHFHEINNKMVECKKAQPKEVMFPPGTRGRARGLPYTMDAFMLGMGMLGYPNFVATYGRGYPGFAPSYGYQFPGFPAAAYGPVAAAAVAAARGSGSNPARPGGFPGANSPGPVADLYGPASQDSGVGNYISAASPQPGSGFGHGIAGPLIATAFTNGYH

Turning to `COc1cc2c(cc1OC)-c1cc3ccc(OC)c(OC)c3c[n+]1CC2` [palmatine], the dissociation constant (Kd) in test [1] is 17 µM; in test [2] it was 49.6 µM; in test [3], 33.5 µM.

One may read the Kd as a measure of binding affinity in units of concentration. The low end stands for higher affinity, the high end for lower affinity.
